Test results: PMC11096398, “Chemical and biophysical characterization of novel potassium channel blocker 3-fluoro-5-methylpyridin-4-amine” (Scientific Reports, 2024)
“And” between values parts separate entries of the source, which are not always exact repeats. Identical values can stand only once. Like-named read-outs stand apart in the source and are kept apart here.

Assays:
CYP2E1 = CYP2E1 (Homo sapiens, UniProt P05181); experiment: in vitro
Description: The relative metabolic stability towards CYP2E1 was assessed with the competitive CYP2E1 inhibition assay utilizing the life technologies™ vivid® CYP2E1 screening kit, as described in previous studies. In this assay, fluorescence emitted by the metabolic product of a specific CYP2E1 substrate included in the kit, was measured in the absence and presence of substrate competitors.
Afterwards, 50 µL master pre-mix 2× (40 nM) CYP2E1 BACULOSOMES® and 2× (0.6 units/mL) vivid® regeneration system in 1× reaction buffer) was added to each well. The plate was incubated for 10 min at room temperature to allow the compounds to interact with the CYP2E1 in the absence of enzyme turnover. Next, the reaction was initiated by adding 10 µL per well of 10× (100 μM) Vivid® substrate (2H-1-benzopyran-3-carbonitrile,7-(ethoxy-methoxy)-2-oxo-(9Cl)) and 10× (300 μM) Vivid® NADP^+ mixture. Immediately (in less than 2 min), the plate was transferred into the fluorescent plate reader and fluorescence was monitored over 60 min (reads in 1 min intervals) at 415 nm as excitation wavelength and 460 nm as emission wavelength. The obtained reads were plotted using GraphPad Prism 9.
A similar vivid® CYP2E1 assay was conducted as described above. […] The plate fluorescence was monitored over 60 min (reads in 1 min intervals) at 415 nm as excitation wavelength and 460 nm as emission wavelength. The reads at 60 min (recalculated by the linear trend line equation) of each concentration were used and fitted with GraphPad Prism9 dose-response-inhibition (concentration is log) curve fitting with weighting method (weighted by 1/Y^2) to calculate the IC50 values. A similar procedure was used for determining the IC50 of 3F4AP.

[1] = molecular target: T1, Shaker voltage-gated potassium channel (Drosophila melanogaster, UniProt P08510); details: cited from earlier work; for IC50: pH 7.4, Hermann equation, reported previously ref 35, read-out: IC50 (at V=0) ± s.d.; for δ ± s.d. (electric fraction): pH 7.4, reported previously ref 35
[2] = pKa determination by titration with HCl (Gran plot); format: physicochemical; details: n = 4
Description: The pKa was determined using titration according to our previously described protocol. A 1 mg/mL solution of 5Me3F4AP was prepared, of which 5 ml was titrated with 0.01 M HCl solution beyond the equivalence point. After each incremental addition of titrant, the sample was stirred and the pH reading was taken with a pH meter. The Gran plot of the titration was analyzed to obtain the pKa (see the plot in Supporting Information, Fig. S3). […] The titration was repeated four times each for each compound.

[3] = molecular target: T1, Shaker voltage-gated potassium channel; experiment: cut-open voltage clamp electrophysiology of K+ currents in Xenopus laevis oocytes expressing Shaker; format: cell-based, D. melanogaster
Description: Blocking potency of 5Me3F4AP was evaluated on the voltage-gated Shaker (homologous to mammalian Kv1.2) ion channel expressed in Xenopus laevis oocytes, as previously described. Briefly, each oocyte expressing the Shaker channel was voltage-clamped in a cut-open voltage clamp (COVC) station in order to elicit K^+ currents in response to the voltage stimulus protocol, which entailed steps of 50 ms from − 100 to 60 mV in increments of 10 mV. For COVC measurements, the external recording solution was composed (in mM) of 12 KOH, 2 Ca(OH)2, 105 NMDG-MES (N-methyl-D-glucamine)-methylsufonate, 20 HEPES (4-(2-hydroxyethyl)-1-piperazineethanesulfonic acid). The internal recording solution was composed of 120 KOH, 2 EGTA (ethylene glycol-bis(β-aminoethyl ether)-N,N,N,N-tetraacetic acid), and 20 HEPES. […] Each pH solution was adjusted with MES (2-(N-morpholino)ethanesulfonic acid). For measurements at pH = 9.1, HEPES was substituted by CHES (2-(cyclohexylamino)-ethanesulfonic acid). Each oocyte expressing the Shaker ion channel was voltage-clamped to record K^+ currents, first in the absence of 5Me3F4AP, and subsequently with the addition of 5Me3F4AP, from 0.0001 to 10 mM. Relative current (Irel) was quantified as the […] of the indicated concentration of 5Me3F4AP. Finally, K^+ currents were amplified with the oocyte clamp amplifier CA-1A (Dagan Corporation, Minneapolis, MN, USA) and digitized with the USB-1604-HS-2AO Multifunction Card (Measurement Computing, Norton, MA, USA). All systems were controlled with the GpatchMC64 program (department of anesthesiology, UCLA, Los Angeles, CA, USA) via a PC. Electrophysiology recordings were sampled at 100 kHz and filtered at 10 kHz.
Data analysis was performed as previously described. Briefly, the half-maximal inhibitory concentration of 5Me3F4AP (IC50) was determined by fitting the Irel curve to the Hill equation at each value of V and pH.
Mean values of data ± standard deviation (s.d.) are given or plotted and the number of experiments is denoted by n. Upper and lower limits of the 95% of confidence interval (CI95) are denoted as 10^logIC50+s.d and 10^logIC50-s.d , respectively.

[4] = parallel artificial membrane permeability assay-blood-brain barrier (BBB) kit; format: in vitro ADME; details: PAMPA-BBB; for Papp at 18 h, 500 µM: PBS pH 7.2, 18 h, n = 3, read-out: permeability to an artificial brain membrane (Pe)
Description: The permeability rates of 5Me3F4AP and derivatives were determined using parallel artificial membrane permeability assay-blood–brain barrier (BBB) kit (BioAssay systems, Hayward, USA) following the manufacturer’s protocol. Initially, solutions of each test compound were prepared in DMSO at a concentration of 10 mM. These stock solutions along with the stock solutions of control compounds (high control: promazine hydrochloride, low control: diclofenac) were then diluted with PBS (pH = 7.2) to obtain the donor solutions with a final concentration of 500 μM. At the same time, 200 μM of equilibrium standards for each compound and a DMSO blank control solution were prepared.
In the experimental setup, 300 μL of PBS was added to the desired well of the acceptor plate, and 5 μL of BBB lipid solution in dodecane was added to membranes of the donor plate. Next, 200 μL of the donor solutions of each test compound and each permeability control were added to the duplicate wells of the donor plate. The donor plate was carefully placed on the acceptor plate and incubator for 18 h at room temperature. After incubation, UV absorption measurements were conducted using 100 μL of the resulting solutions from the acceptor plate and the equilibrium standards. UV absorption of the controls was measured by running a UV scan in the range of 200–500 nm. UV absorption of 5Me3F4AP and derivatives was measured using HPLC equipped with a UV detector and C18 column.

[5] = cited from earlier work
[6] = octanol-water partition coefficient (logD) at pH 7.4; format: physicochemical
Description: The octanol–water partition coefficient (logD) at pH 7.4 was determined according to our previous reported protocol. Briefly, PBS (900 μL), 1-octanol (900 μL), and a 10 mg/ mL aqueous solution of each compound (2 μL) were added to a 2 mL HPLC vial. The compounds were partitioned between the layers via vortexing and centrifuged at 1000 g for 1 min to allow for phase separation. A 10 μL portion was taken from each layer (autoinjector was set up to draw volume at two different heights) and analyzed by HPLC. The relative concentration in each phase was determined by integrating the area under each peak and comparing the ratio of the areas from the octanol and aqueous layers. A calibration curve was performed to ensure that the concentrations detected were within the linear range of the detector (see Figs. S1 and S2 in Supporting Information). This procedure was repeated four times for each compound.

[7] = parameters: method as in PMID 38690718; details: 35 min post-injection, cited from earlier work
[8] = parameters: method as in PMID 33090071; details: monkeys, 2 h post injection ref 26; cited from earlier work
[9] = cited from earlier work; remark: listed apart in the source
[10] = cited from earlier work; remark: listed apart in the source
[11] = final concentration 25 µM, 60 min kinetic measurement
[12] = compound solution titrated with 0.01 M HCl

T1 sequence (P08510 whole entry): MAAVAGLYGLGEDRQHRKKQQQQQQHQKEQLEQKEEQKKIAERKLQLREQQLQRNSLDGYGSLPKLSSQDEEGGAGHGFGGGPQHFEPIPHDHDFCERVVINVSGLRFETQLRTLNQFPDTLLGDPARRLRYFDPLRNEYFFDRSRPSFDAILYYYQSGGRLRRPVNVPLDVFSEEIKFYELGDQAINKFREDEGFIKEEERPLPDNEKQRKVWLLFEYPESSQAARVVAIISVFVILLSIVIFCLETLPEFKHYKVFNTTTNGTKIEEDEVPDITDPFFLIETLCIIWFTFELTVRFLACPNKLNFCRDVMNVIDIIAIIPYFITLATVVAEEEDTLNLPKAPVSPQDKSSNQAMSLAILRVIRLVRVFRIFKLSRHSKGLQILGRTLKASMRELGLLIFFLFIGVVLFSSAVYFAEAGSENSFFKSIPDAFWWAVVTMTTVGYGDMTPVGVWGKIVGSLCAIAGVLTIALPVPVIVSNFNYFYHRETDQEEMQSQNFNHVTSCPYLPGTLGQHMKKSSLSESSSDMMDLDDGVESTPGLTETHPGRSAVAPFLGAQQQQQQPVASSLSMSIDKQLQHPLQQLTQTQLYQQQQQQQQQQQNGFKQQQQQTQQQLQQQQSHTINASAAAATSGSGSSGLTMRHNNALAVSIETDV
CYP2E1, sequence (P05181 whole entry): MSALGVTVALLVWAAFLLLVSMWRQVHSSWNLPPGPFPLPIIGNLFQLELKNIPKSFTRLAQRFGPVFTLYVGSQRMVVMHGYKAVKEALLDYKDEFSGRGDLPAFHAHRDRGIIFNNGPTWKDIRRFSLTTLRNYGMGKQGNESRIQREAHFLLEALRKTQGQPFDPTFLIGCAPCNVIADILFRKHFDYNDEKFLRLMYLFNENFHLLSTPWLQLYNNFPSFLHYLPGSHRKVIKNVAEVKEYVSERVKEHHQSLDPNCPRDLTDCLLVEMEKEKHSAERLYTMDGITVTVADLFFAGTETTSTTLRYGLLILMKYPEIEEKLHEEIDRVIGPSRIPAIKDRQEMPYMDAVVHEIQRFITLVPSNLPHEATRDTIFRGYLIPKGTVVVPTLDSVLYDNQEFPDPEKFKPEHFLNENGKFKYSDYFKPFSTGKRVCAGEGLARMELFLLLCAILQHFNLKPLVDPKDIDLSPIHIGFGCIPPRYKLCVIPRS

Row | Structure (SMILES) | IC50 [1] [µM] | δ ± s.d. (electric fraction) [1] | pKa [2] | change of IC50 when pH was increased to 9.1 [3] | δ ± s.d. (electric fraction) [3] | IC50 ([3]; IC50 (at V=0) ± s.d.) | δ ± s.d. (electric fraction) ([3]; pH 9.1) | Papp at 18 h, 500 µM [4] [×10⁻⁶ cm/s] | reduction in fluorogenic emission / reaction rate vs. blank (CYP2E1; [11]) | pKa [2, 12] | further results
1 | N[C@@H]1C[C@H]1c1ccccc1 (racemic) [tranylcypromine] | – | – | – | – | – | – | – | – | – | – | reduction in fluorogenic emission / reaction rate vs. blank (CYP2E1): most pronounced reduction in fluorogenic emission
2 | Nc1ccncc1F [3F4AP, 3-fluoro-4-aminopyridine] | 122 ± 4 | 0.46 ± 0.10 | 7.37 ± 0.07 | increased around three-fold | 0.41 ± 0.03 | 159 µM and 65 µM | 0.52 ± 0.02 | 3.11 ± 0.29 | substantial decrease in rate | – | IC50 (CYP2E1; human, IC50 for CYP2E1 inhibition, reads at 60 min, three replicates): 15.4 ± 5.1 µM
3 | Cc1cnccc1N [3Me4AP, 3-methyl-4AP] | 21 ± 1 | 0.43 ± 0.10 | – | three-fold | 0.28 ± 0.10 | 44 µM and 10 µM | 0.47 ± 0.03 | – | – | > 9 | –
4 | Nc1ccncc1 [4AP, 4-aminopyridine] | – | 0.41 ± 0.08 | – | – | 0.41 ± 0.06 | – | 0.41 ± 0.05 | – | minor reduction in fluorogenic emission | > 9 | parent fraction in plasma ([5]; 24 h post oral administration ref 42): ~ 70%; pKa ([2]; solution of the compound titrated with 0.01 M HCl): 9.19
5 | Cc1cncc(F)c1N [5Me3F4AP, 3-fluoro-5-methylpyridin-4-amine] | – | – | 7.46 ± 0.01 | – | – | – | 0.40 ± 0.04 | 8.81 ± 1.83 | reaction rate between 4AP and 3F4AP | – | logD ([6]; 1-octanol/PBS, pH 7.4, pH 7.4, n = 4): 0.664 ± 0.005; logD (octanol/water partition coefficient) ([6]; pH 7.4, n = 4): 0.66; block of Shaker K+ currents ([3]; 1 mM, pH 6.4, 7.4 and 9.1): efficiently blocks the channels; Hill parameter h ([3]; Hill fit at 40 mV, all experimental conditions): ≈ 1; change of IC50 when pH was increased to 9.1 ([3]; IC50 at 40 mV, Hill equation): increased around three-fold; δ ± s.d. (electric fraction) ([3]; pH 6.4): 0.39 ± 0.04; IC50 ([3]; pH 6.4, Hermann equation, read-out: IC50 (at V=0) ± s.d.): 118 ± 17 µM; δ ± s.d. (electric fraction) ([3]; pH 7.4): 0.40 ± 0.02; IC50 ([3]; pH 7.4, Hermann equation, read-out: IC50 (at V=0) ± s.d.): 161 ± 25 µM; blocking potency compared with related compounds ([3]; pH 7.4, IC50 at 40 mV): very similar to that of 4AP and 3F4AP; IC50 ([3]; pH 9.1, Hermann equation, read-out: IC50 (at V=0) ± s.d.): 373 ± 84 µM; δ value (electric fraction) ([3]; pH not specified): ~0.4; permeation rate relative to 3F4AP [4]: approximately three times faster than 3F4AP; IC50 at 60 min (CYP2E1; human, recombinant CYP2E1 BACULOSOMES (Vivid CYP2E1 screening kit), IC50 for CYP2E1 inhibition, reads at 60 min, three replicates): 36.2 ± 2.5 µM; CYP2E1-mediated oxidation rate relative to 3F4AP (CYP2E1; kinetic measurement): about two times slower than 3F4AP
6 | Nc1ccncc1[18F] [[^18F]3F4AP, [^18F]3-fluoro-4-aminopyridine] | – | – | – | – | – | – | – | – | – | – | plasma parent fraction (PPF) remaining ([5]; humans, 30 min post injection ref 27): < 50%; plasma parent fraction (PPF) ([7]; anesthetized mice (isoflurane), n = 10 ref 29): 74.8 ± 1.6; plasma parent fraction (PPF) ([7]; awake mice, n = 11 ref 29): 17.7 ± 1.7; plasma parent fraction (PPF) [8]: > 90%; logD [9]: 0.41; pKa [10]: 7.65
